# Data reported in article PMC3582512, “Application of a Novel Microtitre Plate-Based Assay for the Discovery of New Inhibitors of DNA Gyrase and DNA Topoisomerase VI” (PLoS ONE, 2013).
# “Also recorded” adds a separate entry of the source.
# Experiments:
# M. mazei topo VI [1] = target: T1, M. mazei topo VI (Methanosarcina mazei, UniProt Q8PUB7+Q8PUB8); assay: Agarose gel-based DNA relaxation assay; format: biochemical; conditions: for IC50: gel relaxation assay, 1 unit (50 nM) topo VI, read-out: Approx. IC50 against M. mazei topo VI; for Mechanism (Topo VI): summary of mechanistic tests with M. mazei and S. shibatae topo VI
# T1 construct: His tag; made in house
# T1 sequence (Q8PUB8 whole entry): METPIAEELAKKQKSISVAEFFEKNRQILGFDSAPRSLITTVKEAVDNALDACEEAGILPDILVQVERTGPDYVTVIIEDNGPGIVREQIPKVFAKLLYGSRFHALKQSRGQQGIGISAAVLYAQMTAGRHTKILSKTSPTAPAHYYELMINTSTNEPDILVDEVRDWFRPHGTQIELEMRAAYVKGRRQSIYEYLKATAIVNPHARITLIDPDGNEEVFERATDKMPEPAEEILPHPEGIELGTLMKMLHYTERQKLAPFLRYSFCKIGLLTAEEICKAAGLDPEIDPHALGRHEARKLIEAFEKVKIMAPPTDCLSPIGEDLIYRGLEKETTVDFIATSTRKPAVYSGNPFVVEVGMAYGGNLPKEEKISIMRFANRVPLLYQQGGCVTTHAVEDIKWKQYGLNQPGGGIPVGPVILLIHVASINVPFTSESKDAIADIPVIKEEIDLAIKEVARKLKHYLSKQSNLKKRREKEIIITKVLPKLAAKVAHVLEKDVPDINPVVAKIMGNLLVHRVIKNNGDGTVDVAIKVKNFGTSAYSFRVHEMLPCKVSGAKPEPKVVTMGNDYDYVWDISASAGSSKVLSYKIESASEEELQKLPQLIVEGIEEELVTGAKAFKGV
# T1 sequence (Q8PUB7 whole entry): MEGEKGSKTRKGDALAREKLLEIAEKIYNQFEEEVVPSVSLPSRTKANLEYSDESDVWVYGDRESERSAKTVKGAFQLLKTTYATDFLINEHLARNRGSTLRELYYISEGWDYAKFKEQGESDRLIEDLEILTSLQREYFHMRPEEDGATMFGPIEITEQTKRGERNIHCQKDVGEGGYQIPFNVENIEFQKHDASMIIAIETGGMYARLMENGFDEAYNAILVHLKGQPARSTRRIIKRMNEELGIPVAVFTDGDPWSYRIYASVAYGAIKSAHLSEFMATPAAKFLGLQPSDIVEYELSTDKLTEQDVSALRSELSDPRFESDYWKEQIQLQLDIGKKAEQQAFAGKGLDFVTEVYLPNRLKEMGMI
# Method: The agarose gel-based assay was conducted as previously described, [44], [62]. In brief, topoisomerases were incubated with 0.5 µg of plasmid and the desired concentration of compound for 30 min at 37°C (for DNA gyrase and M. mazei topo VI) or 5 min at 75°C (for S. shibatae topo VI), in a total volume of 30 µL. […] Reactions were stopped by the addition of a loading buffer containing EDTA and the drug extracted by vortexing with either chloroform or aqueous butanol as required. In the case of M. mazei topo VI, it was necessary to include SDS in the loading buffer, at a final concentration of 1%. Samples were loaded onto a 1% agarose gel, run for the appropriate length of time and stained with ethidium bromide before visualisation on a UV transilluminator.
# S. shibatae topo VI = target: T2, S. shibatae topo VI (Saccharolobus shibatae, UniProt O05207+O05208); assay: Protection from ADPNP-induced, S. shibatae topo VI-mediated DNA cleavage; format: biochemical, Sulfolobus shibatae
# T2 construct: gift from Danielle Gadelle (University of Paris XI, Orsay)
# T2 sequence (O05207 whole entry): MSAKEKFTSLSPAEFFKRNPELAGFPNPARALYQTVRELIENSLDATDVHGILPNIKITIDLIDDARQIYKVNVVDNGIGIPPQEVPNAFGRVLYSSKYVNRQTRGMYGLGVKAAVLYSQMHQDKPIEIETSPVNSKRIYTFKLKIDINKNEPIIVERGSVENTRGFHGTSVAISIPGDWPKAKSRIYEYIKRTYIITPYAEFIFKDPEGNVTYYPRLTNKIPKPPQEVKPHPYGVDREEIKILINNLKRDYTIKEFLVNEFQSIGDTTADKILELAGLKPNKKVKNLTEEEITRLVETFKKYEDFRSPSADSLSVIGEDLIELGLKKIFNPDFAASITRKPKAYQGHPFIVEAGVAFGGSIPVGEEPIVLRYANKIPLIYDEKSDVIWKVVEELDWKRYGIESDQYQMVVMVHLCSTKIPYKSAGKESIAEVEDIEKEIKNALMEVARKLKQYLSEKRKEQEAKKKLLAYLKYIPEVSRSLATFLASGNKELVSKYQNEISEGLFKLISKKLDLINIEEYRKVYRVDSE
# T2 sequence (O05208 whole entry): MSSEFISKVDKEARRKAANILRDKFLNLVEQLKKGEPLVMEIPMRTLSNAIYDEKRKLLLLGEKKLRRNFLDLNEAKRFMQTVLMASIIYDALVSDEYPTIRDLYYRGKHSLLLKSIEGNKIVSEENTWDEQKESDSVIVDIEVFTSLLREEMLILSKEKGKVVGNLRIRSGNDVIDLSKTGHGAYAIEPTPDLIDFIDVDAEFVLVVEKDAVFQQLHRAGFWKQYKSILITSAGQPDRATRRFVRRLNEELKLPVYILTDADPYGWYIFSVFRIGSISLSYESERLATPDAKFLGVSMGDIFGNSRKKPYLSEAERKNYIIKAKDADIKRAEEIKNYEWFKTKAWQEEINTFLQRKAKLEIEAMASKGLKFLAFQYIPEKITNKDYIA
# Method: Assays to detect the stabilisation of cleavage complexes were identical to the protocol for topoisomerase activity detailed above, except as follows. Cleavage experiments with DNA gyrase were carried out in the absence of ATP and spermidine and 30 µL reactions were stopped with 3 µL 10% SDS and incubated with 3 µL 1 mg/mL proteinase K solution at 37°C for 1 h. For cleavage complex protection assays with suramin, the reaction buffer was modified to contain 4 mM CaCl2 rather than MgCl2.
# E. coli DNA gyrase [2] = target: T3, E. coli DNA gyrase (Escherichia coli, UniProt P0AES4+P0AES6); conditions: not studied further in this paper; cited from earlier work
# T3 construct: made in house
# T3 sequence (P0AES4 whole entry, one chain of several): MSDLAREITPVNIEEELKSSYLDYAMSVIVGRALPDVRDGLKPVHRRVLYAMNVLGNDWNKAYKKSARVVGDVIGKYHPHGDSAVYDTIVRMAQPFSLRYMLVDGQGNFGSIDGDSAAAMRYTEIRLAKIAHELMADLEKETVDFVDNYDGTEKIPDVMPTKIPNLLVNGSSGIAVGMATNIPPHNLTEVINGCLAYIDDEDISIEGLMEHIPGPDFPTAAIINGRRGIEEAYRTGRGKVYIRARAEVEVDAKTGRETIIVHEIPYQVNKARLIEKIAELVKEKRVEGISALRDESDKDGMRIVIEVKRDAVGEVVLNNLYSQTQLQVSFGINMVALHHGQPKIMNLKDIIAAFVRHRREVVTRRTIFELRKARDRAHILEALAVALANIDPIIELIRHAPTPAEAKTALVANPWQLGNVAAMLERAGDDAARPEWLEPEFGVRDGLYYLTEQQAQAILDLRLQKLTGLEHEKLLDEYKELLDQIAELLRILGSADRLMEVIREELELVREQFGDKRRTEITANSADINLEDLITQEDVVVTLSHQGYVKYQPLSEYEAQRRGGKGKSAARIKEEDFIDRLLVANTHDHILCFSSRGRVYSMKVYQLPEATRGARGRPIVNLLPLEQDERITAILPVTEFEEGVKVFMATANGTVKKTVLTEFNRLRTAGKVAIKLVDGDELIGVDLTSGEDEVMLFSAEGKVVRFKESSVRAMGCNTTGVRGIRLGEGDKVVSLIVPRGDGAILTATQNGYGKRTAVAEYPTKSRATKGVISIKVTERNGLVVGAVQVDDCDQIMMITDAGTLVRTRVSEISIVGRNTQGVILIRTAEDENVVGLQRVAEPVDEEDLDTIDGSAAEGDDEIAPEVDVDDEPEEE
# E. coli DNA gyrase [3] = target: T3, E. coli DNA gyrase; assay: DNA triplex-based microtitre plate screen, gyrase supercoiling; format: biochemical; conditions: 25 µM compound, duplicate
# Method: The triplex-based assay was conducted as previously described [45]–[47]. In brief, oligonucleotide TFO1 was immobilised onto a streptavidin-coated microtitre plate. Excess oligonucleotide was removed by washing with buffer. […] The reaction was stopped by the addition of a low pH, high salt buffer and triplex formation was allowed to occur for 30 min at room temperature. The DNA retained on the plate was stained with SYBR Gold (Sigma) dye and the fluorescence readings for each well read in a SpectraMax Gemini fluorimeter (Molecular Devices).
# Twelve plates were screened in duplicate over three days manually using a multichannel pipette as previously described. […] Each plate contained 16 control reactions: eight positive for enzyme activity, which contained enzyme but no library compounds, and eight negative for enzyme activity, which lacked both enzyme and library compounds. All controls were carried out with 5% DMSO.
# M. mazei topo VI [4] = target: T1, M. mazei topo VI; assay: Native gel shift assay, topo VI binding to 147 bp DNA fragment
# Method: In order to test the effects of hit compounds upon DNA binding by topoisomerases, samples of enzyme and drug were prepared under the following conditions in a final volume of 10 μL: 1 nM 147 bp linear fragment of DNA derived from pBR322, [82] 50 mM Tris•HCl (pH 7.5), 100 mM KCl, 5 mM MgCl2, 2 mM DTT, 10% w/v glycerol. Samples were incubated for 30 min at room temperature before being run on a 5% (29:1) Protogel acrylamide (National Diagnostics) gel in 90 mM Tris·Borate, 5 mM MgCl2 at 150 V for 45 min. The DNA was stained by soaking in 2 µg/mL ethidium bromide for 10 min and visualised under UV light.
compound,measurement,setting,value
"Nc1c2ccccc2nc2ccccc12 [9-Aminoacridne, 9-aminoacridine]",Inhibition in gel-based relaxation assay (hit validation),M. mazei topo VI [1],validated as hits
same,IC50,M. mazei topo VI [1],6 µM
same,Mechanism (Topo VI),M. mazei topo VI [1],Prevents DNA cleavage
same,Prevention of ADPNP-induced DNA cleavage by S. shibatae topo VI,S. shibatae topo VI,appeared to prevent ADPNP-induced cleavage
C[n+]1c2cc(N)ccc2cc2ccc(N)cc21 [Acriflavinium],"Mechanism (DNA gyrase), already characterised inhibitors",E. coli DNA gyrase [2],ATPase inhibitor
same,Outcome in gyrase screen (hit threshold 25% inhibition),E. coli DNA gyrase [3],scored over the hit threshold
O=C(O)c1cn(C2CC2)c2cc(N3CCNCC3)c(F)cc2c1=O [Ciprofloxacin],"Mechanism (DNA gyrase), already characterised inhibitors",E. coli DNA gyrase [2],Fluoroquinolone cleavage-complex stabiliser
COc1c(N2CCNC(C)C2)c(F)cc2c(=O)c(C(=O)O)cn(C3CC3)c12 (stereo not shown) [Gatifloxacin],"Mechanism (DNA gyrase), already characterised inhibitors",E. coli DNA gyrase [2],Fluoroquinolone cleavage-complex stabiliser
C[C@H]1COc2c(N3CCN(C)CC3)c(F)cc3c(=O)c(C(=O)O)cn1c23 [Levofloxacin],"Mechanism (DNA gyrase), already characterised inhibitors",E. coli DNA gyrase [2],Fluoroquinolone cleavage-complex stabiliser
CCn1cc(C(=O)O)c(=O)c2cc(F)c(N3CCNC(C)C3)c(F)c21 (stereo not shown) [Lomefloxacin],"Mechanism (DNA gyrase), already characterised inhibitors",E. coli DNA gyrase [2],Fluoroquinolone cleavage-complex stabiliser
COc1c(N2C[C@@H]3CCCN[C@@H]3C2)c(F)cc2c(=O)c(C(=O)O)cn(C3CC3)c12 [Moxifloxacin],"Mechanism (DNA gyrase), already characterised inhibitors",E. coli DNA gyrase [2],Fluoroquinolone cleavage-complex stabiliser
CCn1cc(C(=O)O)c(=O)c2cc(F)c(N3CCNCC3)cc21 [Norfloxacin],"Mechanism (DNA gyrase), already characterised inhibitors",E. coli DNA gyrase [2],Fluoroquinolone cleavage-complex stabiliser
CC1COc2c(N3CCN(C)CC3)c(F)cc3c(=O)c(C(=O)O)cn1c23 (stereo not shown) [Ofloxacin],"Mechanism (DNA gyrase), already characterised inhibitors",E. coli DNA gyrase [2],Fluoroquinolone cleavage-complex stabiliser
CCn1cc(C(=O)O)c(=O)c2cc(F)c(N3CCN(C)CC3)cc21.CS(=O)(=O)O [Perfloxacine Mesylate],"Mechanism (DNA gyrase), already characterised inhibitors",E. coli DNA gyrase [2],Fluoroquinolone cleavage-complex stabiliser
O=C1c2ccccc2C(=O)c2c(O)c(O)cc(O)c21 [Purpurin],Inhibition in gel-based relaxation assay (hit validation),M. mazei topo VI [1],validated as hits
same,IC50,M. mazei topo VI [1],40 µM
same,Mechanism (Topo VI),M. mazei topo VI [1],Blocks DNA binding
same,Prevention of ADPNP-induced DNA cleavage by S. shibatae topo VI,S. shibatae topo VI,marked ability to reduce the amount of cleavage
same,Effect on binding of M. mazei topo VI to DNA,M. mazei topo VI [4],appeared to prevent the binding of topo VI to DNA; also recorded: appeared to prevent G-segment binding
CCN(CC)CCCC(C)Nc1c2ccc(Cl)cc2nc2ccc(OC)cc12 (stereo not shown) [Quinacrine],Inhibition in gel-based relaxation assay (hit validation),M. mazei topo VI [1],validated as hits
same,IC50,M. mazei topo VI [1],8 µM
same,Mechanism (Topo VI),M. mazei topo VI [1],Prevents DNA cleavage
same,Prevention of ADPNP-induced DNA cleavage by S. shibatae topo VI,S. shibatae topo VI,appeared to prevent ADPNP-induced cleavage
O=C(O)c1cn(-c2ccc(F)cc2)c2cc(N3CCNCC3)c(F)cc2c1=O [Surafloxacin],"Mechanism (DNA gyrase), already characterised inhibitors",E. coli DNA gyrase [2],Fluoroquinolone cleavage-complex stabiliser
CCn1nc(C(=O)O)c(=O)c2cc3c(cc21)OCO3 [cinoxacin],Outcome in gyrase screen (hit threshold 25% inhibition),E. coli DNA gyrase [3],missed by the screen
CCn1cc(C(=O)O)c(=O)c2cc(F)c(N3CCNCC3)nc21 [enoxacin],Outcome in gyrase screen (hit threshold 25% inhibition),E. coli DNA gyrase [3],missed by the screen
COc1cc(NS(C)(=O)=O)ccc1Nc1c2ccccc2nc2ccccc12 [m-Amsacrine],Inhibition in gel-based relaxation assay (hit validation),M. mazei topo VI [1],validated as hits
same,IC50,M. mazei topo VI [1],30 µM
same,Mechanism (Topo VI),M. mazei topo VI [1],Prevents DNA cleavage
CCn1cc(C(=O)O)c(=O)c2ccc(C)nc21 [nalidixic acid],Outcome in gyrase screen (hit threshold 25% inhibition),E. coli DNA gyrase [3],missed by the screen
CCn1cc(C(=O)O)c(=O)c2cc3c(cc21)OCO3 [oxolinic acid],Outcome in gyrase screen (hit threshold 25% inhibition),E. coli DNA gyrase [3],missed by the screen
